In ChEMBL document CHEMBL1125227, “Potential antitumor agents. 62. Structure-activity relationships for tricyclic compounds related to the colon tumor active drug 9-oxo-9H-xanthene-4-acetic acid” (J Med Chem, 1991):

What was measured:
Format in all cases: functional, organism-based
Conditions in all cases: Mus musculus
[1] = tested on: MC-38; experiment: In Vivo antitumor effect on subcutaneously implanted C38 colon tumor in mice and examined by histopathology and compared with control.( - = <50% hemorrhagic response) at optimal dose of 750 (mg/kg)
[2] = tested on: MC-38; experiment: In Vivo antitumor effect on subcutaneously implanted C38 colon tumor in mice and examined by histopathology and compared with control.(+ = 50-90% hemorrhagic necrosis response) at optimal dose of 750 (mg/kg)
[3] = tested on: MC-38; experiment: In Vivo antitumor effect on subcutaneously implanted C38 colon tumor in mice and examined by histopathology and compared with control.( + = 50-90% hemorrhagic necrosis response) at optimal dose of 750 (mg/kg)
[4] = tested on: MC-38; experiment: In Vivo antitumor effect on subcutaneously implanted C38 colon tumor in mice and examined by histopathology and compared with control.( - = <50% hemorrhagic response) at optimal dose of 330 (mg/kg)
[5] = tested on: MC-38; experiment: In Vivo antitumor effect on subcutaneously implanted C38 colon tumor in mice and examined by histopathology and compared with control.( + = 50-90% hemorrhagic necrosis response) at optimal dose of 500 (mg/kg)
[6] = tested on: MC-38; experiment: In Vivo antitumor effect on subcutaneously implanted C38 colon tumor in mice and examined by histopathology and compared with control.( ++ = >90% hemorrhagic necrosis response) at optimal dose of 220 (mg/kg)
[7] = tested on: MC-38; experiment: In Vivo antitumor effect on subcutaneously implanted C38 colon tumor in mice and examined by histopathology and compared with control.( - = <50% hemorrhagic response) at optimal dose of 500 (mg/kg)

| SMILES | Activity [1] | also measured |
| --- | --- | --- |
| O=C(O)Cc1cccc2nc3ccccc3nc12 | <50% hemorrhagic response at optimal dose of 750 mg/kg |  |
| O=C(O)Cc1cccc2c1C(=O)c1ccccc1C2=O |  | Activity [2]: 50-90% hemorrhagic necrosis response at optimal dose of 750 mg/kg |
| O=C(O)Cc1cccc2c1Oc1ccccc1S2(=O)=O | <50% hemorrhagic response at optimal dose of 750 mg/kg |  |
| O=C(O)Cc1cccc2c1Oc1ccccc1C(=O)C2 |  | Activity [3]: 50-90% hemorrhagic necrosis response at optimal dose of 750 mg/kg |
| O=C(O)Cc1cccc2c1Oc1ccccc1CC2=O | <50% hemorrhagic response at optimal dose of 750 mg/kg |  |
| O=C(O)Cc1cccc2c(=O)c3ccccc3sc12 |  | Activity [4]: <50% hemorrhagic response at optimal dose of 330 mg/kg |
| O=C(O)Cc1cccc2c1oc1ccccc12 |  | Activity [5]: 50-90% hemorrhagic necrosis response at optimal dose of 500 mg/kg |
| O=C(O)Cc1cccc2c1Oc1ccccc1[S+]2[O-] (stereo unspecified) | <50% hemorrhagic response at optimal dose of 750 mg/kg |  |
| O=C(O)Cc1cccc2c1Oc1ccccc1S2 |  | Activity [4]: <50% hemorrhagic response at optimal dose of 330 mg/kg |
| O=C(O)Cc1cccc2c1Oc1ccccc1O2 | <50% hemorrhagic response at optimal dose of 750 mg/kg |  |
| O=C(O)Cc1cccc2oc3ccccc3c12 | <50% hemorrhagic response at optimal dose of 750 mg/kg |  |
| O=C(O)Cc1cccc2c(=O)c3ccccc3oc12 |  | Activity [6]: >90% hemorrhagic necrosis response at optimal dose of 220 mg/kg |
| O=C(O)Cc1cccc2c1Oc1ccccc1C2 |  | Activity [7]: <50% hemorrhagic response at optimal dose of 500 mg/kg |
| O=C(O)Cc1cccc2cc3ccccc3cc12 |  | Activity [3]: 50-90% hemorrhagic necrosis response at optimal dose of 750 mg/kg |
| O=C(O)Cc1cccc2c1S(=O)(=O)c1ccccc1C2=O | <50% hemorrhagic response at optimal dose of 750 mg/kg |  |
| O=C(O)Cc1cccc2c(=O)c3ccccc3[s+]([O-])c12 (stereo unspecified) | <50% hemorrhagic response at optimal dose of 750 mg/kg |  |
